Test results taken from article PMC12644462, “A novel radiosensitizer α-sulfoquinovosyl-acylpropanediol (SQAP) inhibits DNA repair pathways and sensitize cells to cancer chemotherapeutic agents” (Scientific Reports, 2025).
Structures can show the parent of a compound that is named as a salt. Where two headings read alike, the source gives them in different places.

How the values were obtained:
CML-6M and STSA-1 cells = assay: Colony formation assay, chemosensitization by SQAP (qualitative); format: cell-based, canine; conditions: for sensitization of chemotherapeutic agent by SQAP: combined with 30 µM SQAP
Protocol: Sensitivity to radiation or chemical reagents was assessed through colony formation assays. After trypsinized single cells were plated to form 20–200 colonies per dish and then treated with SQAP for 3 h in normoxia or hypoxia, the cells were irradiated. For drug sensitivity study, trypsinized cells were plated and then treated with various dosage of testing agents. After seven days of incubation, colonies were fixed, stained and scored. Regression curves were drawn from survival fraction, and D10 values (doses to achieve 10% cell survival) were calculated by Prism 8 (GraphPad software, San Diego, CA, USA) from at least three independent experiments. Oxygen enhancement ratio (OER) and sensitization enhancement ratio (SER) values were calculated from D10 values. OER values were calculated from the D10 value in hypoxia divided by the D10 value in normoxic condition. SER values were calculated from the D10 value without SQAP divided by the D10 value with SQAP.

[1] = test system: Chinese hamster V79 cells; assay: Colony formation assay, radio- and chemosensitization; format: cell-based
Protocol: For hypoxia irradiation, cell cultures were placed in Aneropak Kenki system (Mitsubishi Gas Chemical, Tokyo, Japan) with oxygen meter to confirm pO2 below 0.1%. Cells were kept in hypoxia for 3 h before irradiation.

STSA-1 cells = assay: Colony formation assay, drug sensitivity with SQAP; format: cell-based, canine
Protocol: (§1) Sensitivity to radiation or chemical reagents was assessed through colony formation assays. After trypsinized single cells were plated to form 20–200 colonies per dish and then treated with SQAP for 3 h in normoxia or hypoxia, the cells were irradiated. For drug sensitivity study, trypsinized cells were plated and then treated with various dosage of testing agents. After seven days of incubation, colonies were fixed, stained and scored[24]. Regression curves were drawn from survival fraction, and D10 values (doses to achieve 10% cell survival) were calculated by Prism 8 (GraphPad software, San Diego, CA, USA) from at least three independent experiments. Oxygen enhancement ratio (OER) and sensitization enhancement ratio (SER) values were calculated from D10 values. OER values were calculated from the D10 value in hypoxia divided by the D10 value in normoxic condition. SER values were calculated from the D10 value without SQAP divided by the D10 value with SQAP.

CML-6M cells = assay: Colony formation assay, drug sensitivity with SQAP; format: cell-based, canine
Protocol: as §1

O=NN(CCCl)C(=O)NC1CCCCC1 [lomustine]
sensitization of chemotherapeutic agent by SQAP (CML-6M and STSA-1 cells): no sensitization

COc1cc([C@@H]2c3cc4c(cc3[C@@H](O[C@@H]3O[C@@H]5CO[C@@H](C)O[C@H]5[C@H](O)[C@H]3O)[C@H]3COC(=O)[C@H]23)OCO4)cc(OC)c1O [etoposide]
effect of SQAP on cytotoxicity of the agent [1]: increased the cytotoxicity

CO[C@@]12[C@H](COC(N)=O)C3=C(C(=O)C(C)=C(N)C3=O)N1C[C@@H]1N[C@@H]12 [MMC, Mitomycin C]
effect of SQAP on cytotoxicity of the agent ([1]; V79, 10 and 20 µM SQAP): increased the cytotoxicity

O=C(O)CCCc1ccc(N(CCCl)CCCl)cc1 [chlorambucil, Chlorambucil]
sensitization of chemotherapeutic agent by SQAP (CML-6M and STSA-1 cells): no sensitization

bleomycin
change of D10 value of the agent with SQAP treatment [1]: significant reduction
sensitization to bleomycin by SQAP [1]: sensitized and not

N.N.O=C([O-])C1(C(=O)[O-])CCC1.[Pt+2] [carboplatin]
sensitization of chemotherapeutic agent by SQAP (CML-6M and STSA-1 cells): significant sensitization

C[C@]12C=CC(=O)C=C1CC[C@@H]1[C@@H]2[C@@H](O)C[C@@]2(C)[C@H]1CC[C@]2(O)C(=O)CO [prednisolone]
cytotoxicity (D10 not available) (CML-6M and STSA-1 cells; colony formation): low cytotoxicity
sensitization of chemotherapeutic agent by SQAP (CML-6M and STSA-1 cells): no sensitization

N.N.[Cl][Pt][Cl] [cisplatin]
change of D10 value of the agent with SQAP treatment ([1]; V79, P < 0.05): significant reduction

CC[C@@]1(O)C(=O)OCc2c1cc1n(c2=O)Cc2cc3ccccc3nc2-1 [camptothecin, Camptothecin]
effect of SQAP on cytotoxicity of the agent ([1]; V79, 10 and 20 µM SQAP): increased the cytotoxicity
change of D10 value of the agent with SQAP treatment ([1]; V79, P < 0.05): significant reduction

CC(=O)O[C@H]1C(=O)[C@@]2(C)[C@H]([C@H](OC(=O)c3ccccc3)[C@]3(O)C[C@H](OC(=O)[C@H](O)[C@@H](NC(=O)c4ccccc4)c4ccccc4)C(C)=C1C3(C)C)[C@]1(OC(C)=O)CO[C@@H]1C[C@@H]2O [Taxol]
effect of SQAP on cytotoxicity of the agent [1]: increased the cytotoxicity

O=C1c2c(O)ccc(O)c2C(=O)c2c(NCCNCCO)ccc(NCCNCCO)c21 [Mitoxantrone, Mitoxantrone dihydrochloride]
sensitization of chemotherapeutic agent by SQAP (CML-6M and STSA-1 cells): significant sensitization

COc1cccc2c1C(=O)c1c(O)c3c(c(O)c1C2=O)C[C@@](O)(C(=O)CO)C[C@@H]3O[C@H]1C[C@H](N)[C@H](O)[C@H](C)O1 [doxorubicin, Doxorubicin hydrochloride]
sensitization of chemotherapeutic agent by SQAP (CML-6M and STSA-1 cells): most dramatic sensitization
D10 (STSA-1 cells; STSA-1, with 30 µM SQAP): 4.66 nM
D10 (STSA-1 cells; STSA-1, without SQAP): 8.11 nM
D10 (CML-6M cells; with 30 µM SQAP): 8.94 nM
D10 (CML-6M cells; without SQAP): 18.0 nM

COS(C)(=O)=O [MMS, methyl methanesulfonate]
effect of SQAP on cytotoxicity of the agent [1]: increased the cytotoxicity
